Experiments:
Experiment in all cases: relative viability (nuclei count vs DMSO), 5 days (fraction); higher = more cells survive
[1] = compound: C1=CC2=C(C=C(C(=C2N=C1)O)N=NC3=CC4=C(C=C3)C=C(C=C4)S(=O)(=O)O)S(=O)(=O)O + O=C(CCCCCCC(=O)Nc1ccccc1)NO [Vorinostat] (partner 1 µM)
Outline: (§1)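 Lung cancer cell lines in 1536-well plates got either a single drug or a fixed anchor-drug dose together with five library-drug doses (not always all listed) in √10 steps, by pin tool, on the day after seeding. Nuclei were counted after 5 days, and relative viability is the treated-to-vehicle ratio of nuclei counts. Values are medians of duplicate plates.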

AT-7519 + OSI-027 = compound: O=C(NC1CCNCC1)c1n[nH]cc1NC(=O)c1c(Cl)cccc1Cl [AT-7519] + COc1cccc2cc(-c3nc([C@H]4CC[C@H](C(=O)O)CC4)n4ncnc(N)c34)[nH]c12 [OSI-027] (partner 0.5 µM)
Outline: as §1

AT-7519 + Vorinostat = compound: O=C(NC1CCNCC1)c1n[nH]cc1NC(=O)c1c(Cl)cccc1Cl [AT-7519] + O=C(CCCCCCC(=O)Nc1ccccc1)NO [Vorinostat] (partner 1 µM)
Outline: as §1

AT-7519 + Palbociclib = compound: O=C(NC1CCNCC1)c1n[nH]cc1NC(=O)c1c(Cl)cccc1Cl [AT-7519] + CC(=O)c1c(C)c2cnc(Nc3ccc(N4CCNCC4)cn3)nc2n(C2CCCC2)c1=O [Palbociclib] (partner 0.5 µM)
Outline: as §1

Question: How did the relative viability ([1]; first compound 0.08 µM) turn out when UMC-11 was run?
Answer: Its relative viability is 0.462.

Question: What about the relative viability ([1]; first compound 0.253 µM) of the same cell line?
Answer: Its relative viability is 0.367.

Question: What about the relative viability ([1]; first compound 0.8 µM) of the same cell line?
Answer: The relative viability was 0.475.

Question: And the relative viability ([1]; first compound 2.53 µM)?
Answer: Its relative viability is 0.403.

Question: And the relative viability ([1]; first compound 8 µM)?
Answer: The relative viability was 0.392.

Question: And the relative viability (AT-7519 + OSI-027; first compound 0.01 µM)?
Answer: Its relative viability is 0.442.

Question: What about the relative viability (AT-7519 + OSI-027; first compound 0.03162 µM) of the same cell line?
Answer: The relative viability was 0.432.

Question: What about the relative viability (AT-7519 + OSI-027; first compound 0.3162 µM) of the same cell line?
Answer: The relative viability was 0.404.

Question: And the relative viability (AT-7519 + OSI-027; first compound 1 µM)?
Answer: The relative viability was 0.27.

Question: What about the relative viability (AT-7519 + Vorinostat; first compound 0.01 µM) of the same cell line?
Answer: The relative viability was 0.324.

Question: What about the relative viability (AT-7519 + Vorinostat; first compound 0.03162 µM) of the same cell line?
Answer: The relative viability was 0.379.

Question: What about the relative viability (AT-7519 + Vorinostat; first compound 0.3162 µM) of the same cell line?
Answer: Its relative viability is 0.272.

Question: What about the relative viability (AT-7519 + Vorinostat; first compound 1 µM) of the same cell line?
Answer: Its relative viability is 0.205.

Question: And the relative viability (AT-7519 + Palbociclib; first compound 0.01 µM)?
Answer: Its relative viability is 0.319.

Question: And the relative viability (AT-7519 + Palbociclib; first compound 0.03162 µM)?
Answer: Its relative viability is 0.328.

Question: And the relative viability (AT-7519 + Palbociclib; first compound 0.3162 µM)?
Answer: Its relative viability is 0.283.

Question: What about the relative viability (AT-7519 + Palbociclib; first compound 1 µM) of the same cell line?
Answer: Its relative viability is 0.25.

Source: the supplement of paper PMC10307832
